Laboratory results taken from US8415469B2, “Compounds and methods for kinase modulation, and indications therefor” (Plexxikon Inc., priority 2005, dated 2013).

Legend:
Assay type in all cases: biochemical
Abl = biological target: T1, Abl (Homo sapiens, UniProt P00519); experiment: AlphaScreen kinase assay, Abl; settings: read-out: activity toward kinase Abl, IC50
T1 construct: P1121. pET-SPEC BI-PTP Abl G227-V515-X; His6 (N); made in house; host or cells: E. coli (PTP1B co-expressed)
T1 sequence (P00519 with tags, fused parts or gaps): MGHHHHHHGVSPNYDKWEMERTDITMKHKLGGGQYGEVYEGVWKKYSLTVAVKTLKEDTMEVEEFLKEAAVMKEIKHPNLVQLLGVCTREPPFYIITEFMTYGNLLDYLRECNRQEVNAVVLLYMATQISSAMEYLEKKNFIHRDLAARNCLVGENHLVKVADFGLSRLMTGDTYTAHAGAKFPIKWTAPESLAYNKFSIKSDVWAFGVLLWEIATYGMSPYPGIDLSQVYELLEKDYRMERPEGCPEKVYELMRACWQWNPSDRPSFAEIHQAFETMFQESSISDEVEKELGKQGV
Excerpt: (§1) AlphaScreen assay was used to screen additional kinases. The assay is similarly dependent on the phosphorylation of a peptide substrate. In this assay, an antibody that recognizes phosphorylated substrate is bound to an acceptor bead. The peptide substrate is attached to biotin, which binds to a donor head that contains streptavidin. Thus phosphorylated substrate is bound by antibody and streptavidin, bringing the donor and acceptor heads into close proximity when kinase is not inhibited. The donor produces singlet oxygen which results in emission from the acceptor when they are in close proximity. Conversely, when kinase is inhibited, the donor and acceptor beads are not associated and the emission from the acceptor is reduced.
(§2) AlphaScreen assays were done using compounds dissolved in DMSO to a concentration of 20 mM. The compounds were diluted accordingly to the desired final concentrations in each sample well, using 1:3 serial dilution for a total of 8 concentration points.

B-Raf = biological target: T2, B-Raf (Homo sapiens, UniProt P15056); experiment: AlphaScreen kinase assay, B-Raf; settings: read-out: IC50, activity toward kinase B-Raf
T2 construct: purchased Upstate Biotechnology

B-Raf V600E = biological target: T3, B-Raf V600E (Homo sapiens, UniProt P15056, V600E); experiment: AlphaScreen kinase assay, B-Raf V600E; settings: read-out: IC50, activity toward kinase B-Raf V600E
T3 construct: P4254. pFastBacBD-CDC37 BRAF D437-K722-X, V600E; His6 with pFastBac HT leader (TEV site) (N); made in house; host or cells: Sf9 (baculovirus; chaperone CDC37 co-expressed)

c-Raf-1 = biological target: T4, c-Raf-1 (Homo sapiens, UniProt P04049); experiment: AlphaScreen kinase assay, c-Raf-1; settings: read-out: IC50, activity toward kinase c-Raf-1
T4 construct: purchased Upstate Biotechnology

Jnk3 = biological target: T5, Jnk3 (Homo sapiens, UniProt P53779); experiment: AlphaScreen kinase assay, Jnk3; settings: read-out: IC50, activity toward kinase Jnk3
T5 construct: purchased Upstate Biotechnology

Kit = biological target: T6, Kit (Homo sapiens, UniProt P10721); experiment: AlphaScreen kinase assay, Kit; settings: read-out: IC50, activity toward kinase Kit
T6 construct: P1332.N6 BI PTP KIT M552-K948-X COD; His6 (N); made in house; host or cells: E. coli (PTP1B co-expressed)

Ret = biological target: T7, Ret (Homo sapiens, UniProt P07949); experiment: AlphaScreen kinase assay, Ret; settings: read-out: IC50, activity toward kinase Ret
T7 construct: P1378.pET-SF BI-PTP RET H661-R1012 HIS; made in house
T7 sequence (P07949 with tags, fused parts or gaps): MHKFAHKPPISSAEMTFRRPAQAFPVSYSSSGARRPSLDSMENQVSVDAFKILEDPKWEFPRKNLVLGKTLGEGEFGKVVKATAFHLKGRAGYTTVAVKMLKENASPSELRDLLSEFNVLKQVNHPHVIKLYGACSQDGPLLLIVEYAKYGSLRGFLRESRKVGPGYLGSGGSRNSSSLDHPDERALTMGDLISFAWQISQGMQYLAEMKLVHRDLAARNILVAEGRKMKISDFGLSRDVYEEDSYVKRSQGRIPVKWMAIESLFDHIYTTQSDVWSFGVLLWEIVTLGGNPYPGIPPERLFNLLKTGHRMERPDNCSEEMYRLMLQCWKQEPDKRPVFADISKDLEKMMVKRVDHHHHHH

Met = biological target: T8, Met (Homo sapiens, UniProt P08581); experiment: AlphaScreen kinase assay, Met; settings: read-out: IC50, activity toward kinase Met
T8 construct: P1818.pETN6 BI-PTP MET G1056-G1364-X WT; His6 (N); made in house; host or cells: E. coli (PTP1B co-expressed)
Excerpt: as §1, §2

FGFR1 = biological target: T9, FGFR1 (Homo sapiens, UniProt P11362, C488A/C584S); experiment: AlphaScreen kinase assay, FGFR1; settings: read-out: IC50, activity toward kinase FGFR
T9 construct: P1351.pET N6 BI-PTP FGFR A458-E765-X C488A, C584S; made in house; host or cells: E. coli (PTP1B co-expressed)

Kdr = biological target: T10, Kdr (Homo sapiens, UniProt P35968); experiment: Z'-Lyte FRET kinase assay (Invitrogen), Kdr; settings: read-out: IC50, activity toward kinase Kdr
T10 construct: purchased Invitrogen (assay run by Invitrogen)

Pyk2 = biological target: T11, Pyk2 (Homo sapiens, UniProt Q14289); experiment: AlphaScreen kinase assay, Pyk2; settings: read-out: IC50, activity toward kinase Pyk2
T11 construct: purchased Upstate Biotechnology

Src = biological target: T12, Src (Homo sapiens, UniProt P12931); experiment: AlphaScreen kinase assay, Src; settings: read-out: IC50, activity toward kinase Src
T12 construct: P1144. pET-N6 BI-PTP SRC V86-L536-X; made in house

Btk = biological target: T13, Btk (Homo sapiens, UniProt Q06187); experiment: Z'-Lyte FRET kinase assay (Invitrogen), Btk; settings: read-out: IC50, activity toward kinase Btk
T13 construct: purchased Invitrogen (assay run by Invitrogen)

Yes = biological target: T14, Yes (Homo sapiens, UniProt P07947); experiment: Z'-Lyte FRET kinase assay (Invitrogen), Yes; settings: read-out: IC50, activity toward kinase Yes
T14 construct: purchased Invitrogen (Carlsbad, Calif.), screening service
Summary of the method: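 Read-out is the coumarin-to-fluorescein emission ratio, which rises when unphosphorylated peptide is cleaved by the development protease. Reactions contain serially diluted compound, 2 μM peptide and 10 μM ATP and run for 1 h at room temperature before 1 h development.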

Zap70 = biological target: T15, Zap70 (Homo sapiens, UniProt P43403); experiment: AlphaScreen kinase assay, Zap70; settings: read-out: IC50, activity toward kinase Zap70
T15 construct: P1868.pFastBac1 ZAP70 D327-G606 HIS, WT; His7 (HHHHHHH) (C); made in house
T15 sequence (P43403 with tags, fused parts or gaps): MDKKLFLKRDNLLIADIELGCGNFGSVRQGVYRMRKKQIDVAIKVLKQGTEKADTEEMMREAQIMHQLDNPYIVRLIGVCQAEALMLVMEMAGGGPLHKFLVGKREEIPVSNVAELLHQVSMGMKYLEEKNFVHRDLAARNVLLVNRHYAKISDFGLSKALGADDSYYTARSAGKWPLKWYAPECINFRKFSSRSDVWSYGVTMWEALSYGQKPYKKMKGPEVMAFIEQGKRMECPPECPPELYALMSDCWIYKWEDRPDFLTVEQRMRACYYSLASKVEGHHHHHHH
Summary of the method: (§3)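 Uses phospho-specific antibody on acceptor beads plus streptavidin donor beads capturing biotinylated peptide substrate; singlet oxygen from donor excites nearby acceptor. Inhibitors tested in 8-point, 1:3 titrations starting from 20 mM DMSO solutions.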

Jnk2 = biological target: T16, Jnk2 (Homo sapiens, UniProt P45984); experiment: AlphaScreen kinase assay, Jnk2; settings: read-out: IC50, activity toward kinase Jnk2
T16 construct: purchased Roche Protein Expression Group (Indianapolis, IN)
Summary of the method: as §3

Fak = biological target: T17, Fak (Homo sapiens, UniProt Q05397); experiment: AlphaScreen kinase assay, Fak; settings: read-out: IC50, activity toward kinase Fak
T17 construct: P1358.pFastBacHtb FAK S411-Q686-X; His6 with pFastBacHTb leader (TEV site) (N); made in house; host or cells: Sf9 (baculovirus)

Fms = biological target: T18, Fms (Homo sapiens, UniProt P07333); experiment: AlphaScreen kinase assay, Fms; settings: read-out: IC50, activity toward kinase Fms
T18 construct: purchased Upstate Biotechnology

MAP4K4 = MAP4K4 (Homo sapiens, UniProt O95819); experiment: AlphaScreen kinase assay, MAP4K4; settings: read-out: IC50, activity toward kinase MAP4K4
Flt1 = biological target: T19, Flt1 (Homo sapiens, UniProt P17948); experiment: AlphaScreen kinase assay, Flt1; settings: read-out: IC50, activity toward kinase Flt1
T19 construct: P1826.pETN6 BI-PTP FLT1 M799-D1165-X WT; His6 (N); made in house; host or cells: E. coli (PTP1B co-expressed)
T19 sequence (P17948 with tags, fused parts or gaps): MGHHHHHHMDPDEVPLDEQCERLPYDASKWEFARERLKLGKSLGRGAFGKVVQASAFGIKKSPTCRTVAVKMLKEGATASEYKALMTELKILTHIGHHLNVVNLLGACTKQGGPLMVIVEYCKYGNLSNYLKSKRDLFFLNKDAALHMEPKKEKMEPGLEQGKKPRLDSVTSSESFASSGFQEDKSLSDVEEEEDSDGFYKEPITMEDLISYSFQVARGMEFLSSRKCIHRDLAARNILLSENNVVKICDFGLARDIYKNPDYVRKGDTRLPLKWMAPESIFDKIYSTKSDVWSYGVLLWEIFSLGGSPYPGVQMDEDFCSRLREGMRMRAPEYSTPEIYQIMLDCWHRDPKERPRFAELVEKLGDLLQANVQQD

Jnk1 = biological target: T20, Jnk1 (Homo sapiens, UniProt P45983); experiment: AlphaScreen kinase assay, Jnk1; settings: read-out: IC50, activity toward kinase Jnk1
T20 construct: purchased Upstate Biotechnology

T8 sequence (P08581 with tags, fused parts or gaps): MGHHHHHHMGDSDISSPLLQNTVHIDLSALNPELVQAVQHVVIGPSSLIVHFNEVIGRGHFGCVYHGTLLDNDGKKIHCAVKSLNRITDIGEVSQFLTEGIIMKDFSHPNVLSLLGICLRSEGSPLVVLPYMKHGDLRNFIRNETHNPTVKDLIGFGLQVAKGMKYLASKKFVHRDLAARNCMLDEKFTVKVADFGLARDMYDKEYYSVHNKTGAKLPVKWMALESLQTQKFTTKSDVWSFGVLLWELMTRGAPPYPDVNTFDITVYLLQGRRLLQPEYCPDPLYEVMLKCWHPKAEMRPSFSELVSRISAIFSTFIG
T5 sequence (P53779 whole entry): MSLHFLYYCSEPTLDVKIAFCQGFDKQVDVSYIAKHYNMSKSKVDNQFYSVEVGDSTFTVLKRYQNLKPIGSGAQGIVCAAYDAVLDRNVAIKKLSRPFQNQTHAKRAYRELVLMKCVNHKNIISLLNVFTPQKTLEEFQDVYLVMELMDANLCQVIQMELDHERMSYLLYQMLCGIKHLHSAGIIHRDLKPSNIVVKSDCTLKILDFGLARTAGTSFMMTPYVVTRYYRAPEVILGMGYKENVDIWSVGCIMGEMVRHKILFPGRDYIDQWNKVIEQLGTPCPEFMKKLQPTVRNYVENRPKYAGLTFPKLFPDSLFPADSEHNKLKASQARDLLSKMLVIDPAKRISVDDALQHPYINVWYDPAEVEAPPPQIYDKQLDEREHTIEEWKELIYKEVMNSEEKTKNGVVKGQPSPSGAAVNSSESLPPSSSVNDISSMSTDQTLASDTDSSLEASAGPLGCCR
T11 sequence (Q14289 whole entry): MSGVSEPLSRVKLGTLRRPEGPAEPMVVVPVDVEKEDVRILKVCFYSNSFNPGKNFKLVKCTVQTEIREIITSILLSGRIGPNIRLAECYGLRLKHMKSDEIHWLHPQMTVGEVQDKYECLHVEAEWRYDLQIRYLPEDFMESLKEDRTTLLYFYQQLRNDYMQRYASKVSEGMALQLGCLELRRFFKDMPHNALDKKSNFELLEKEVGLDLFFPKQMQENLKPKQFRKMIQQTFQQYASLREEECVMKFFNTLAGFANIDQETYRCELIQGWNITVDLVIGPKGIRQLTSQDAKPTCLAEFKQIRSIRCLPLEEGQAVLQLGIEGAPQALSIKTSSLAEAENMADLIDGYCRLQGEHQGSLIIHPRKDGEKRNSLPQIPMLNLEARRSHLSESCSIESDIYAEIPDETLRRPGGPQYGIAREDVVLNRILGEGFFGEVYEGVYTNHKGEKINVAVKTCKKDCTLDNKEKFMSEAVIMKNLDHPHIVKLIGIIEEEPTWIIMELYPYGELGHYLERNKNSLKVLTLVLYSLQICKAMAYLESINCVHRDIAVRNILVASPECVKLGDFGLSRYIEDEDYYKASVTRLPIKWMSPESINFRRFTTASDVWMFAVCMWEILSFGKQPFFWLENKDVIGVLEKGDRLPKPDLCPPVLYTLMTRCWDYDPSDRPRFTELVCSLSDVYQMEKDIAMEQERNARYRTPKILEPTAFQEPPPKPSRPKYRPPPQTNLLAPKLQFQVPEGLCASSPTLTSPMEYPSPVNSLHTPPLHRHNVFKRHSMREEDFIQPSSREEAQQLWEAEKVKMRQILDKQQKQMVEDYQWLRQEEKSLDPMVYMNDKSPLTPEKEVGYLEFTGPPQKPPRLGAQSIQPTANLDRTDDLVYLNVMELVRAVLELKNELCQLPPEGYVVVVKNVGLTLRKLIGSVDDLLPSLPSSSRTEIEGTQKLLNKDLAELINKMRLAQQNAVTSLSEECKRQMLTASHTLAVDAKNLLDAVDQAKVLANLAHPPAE
T2 sequence (P15056 whole entry): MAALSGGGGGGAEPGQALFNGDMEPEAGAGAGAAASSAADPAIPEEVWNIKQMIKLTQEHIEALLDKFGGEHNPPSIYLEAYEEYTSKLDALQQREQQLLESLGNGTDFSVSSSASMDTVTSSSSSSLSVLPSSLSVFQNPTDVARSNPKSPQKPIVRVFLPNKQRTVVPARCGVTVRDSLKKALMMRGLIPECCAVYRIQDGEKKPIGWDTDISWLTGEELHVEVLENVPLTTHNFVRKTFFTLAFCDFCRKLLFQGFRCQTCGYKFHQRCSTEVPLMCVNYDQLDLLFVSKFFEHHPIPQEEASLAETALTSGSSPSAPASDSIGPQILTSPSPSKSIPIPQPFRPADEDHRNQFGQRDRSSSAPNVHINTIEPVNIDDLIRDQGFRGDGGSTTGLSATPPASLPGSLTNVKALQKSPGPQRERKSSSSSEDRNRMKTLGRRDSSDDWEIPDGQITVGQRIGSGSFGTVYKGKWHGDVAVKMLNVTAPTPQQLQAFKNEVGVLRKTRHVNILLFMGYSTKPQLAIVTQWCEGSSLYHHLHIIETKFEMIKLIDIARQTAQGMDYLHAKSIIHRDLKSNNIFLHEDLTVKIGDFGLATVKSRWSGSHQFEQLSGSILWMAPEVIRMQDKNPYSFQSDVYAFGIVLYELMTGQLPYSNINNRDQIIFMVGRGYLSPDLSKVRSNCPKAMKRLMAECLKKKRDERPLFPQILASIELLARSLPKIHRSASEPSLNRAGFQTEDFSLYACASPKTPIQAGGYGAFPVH
T12 sequence (P12931 with tags, fused parts or gaps): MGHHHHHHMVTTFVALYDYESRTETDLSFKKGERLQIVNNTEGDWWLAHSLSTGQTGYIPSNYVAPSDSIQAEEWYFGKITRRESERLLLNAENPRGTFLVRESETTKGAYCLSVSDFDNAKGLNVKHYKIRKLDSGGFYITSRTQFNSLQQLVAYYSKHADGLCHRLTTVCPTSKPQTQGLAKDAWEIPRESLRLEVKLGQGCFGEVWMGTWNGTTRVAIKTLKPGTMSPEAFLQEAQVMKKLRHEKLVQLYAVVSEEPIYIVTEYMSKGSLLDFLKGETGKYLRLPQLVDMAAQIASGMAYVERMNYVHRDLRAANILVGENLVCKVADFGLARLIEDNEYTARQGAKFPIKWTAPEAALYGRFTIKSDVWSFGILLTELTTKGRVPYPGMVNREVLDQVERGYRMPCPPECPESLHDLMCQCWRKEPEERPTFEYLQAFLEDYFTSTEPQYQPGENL
T3 sequence (P15056 with tags, fused parts or gaps V600E): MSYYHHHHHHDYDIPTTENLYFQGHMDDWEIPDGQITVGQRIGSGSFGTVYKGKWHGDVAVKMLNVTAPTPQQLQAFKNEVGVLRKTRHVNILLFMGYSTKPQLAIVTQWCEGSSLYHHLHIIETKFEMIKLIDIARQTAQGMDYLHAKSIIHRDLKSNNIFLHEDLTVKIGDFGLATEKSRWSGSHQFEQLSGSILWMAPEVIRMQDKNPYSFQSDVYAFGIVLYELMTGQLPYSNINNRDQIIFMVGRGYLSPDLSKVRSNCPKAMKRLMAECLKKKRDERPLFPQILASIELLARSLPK
T9 sequence (P11362 458-765 C488A/C584S): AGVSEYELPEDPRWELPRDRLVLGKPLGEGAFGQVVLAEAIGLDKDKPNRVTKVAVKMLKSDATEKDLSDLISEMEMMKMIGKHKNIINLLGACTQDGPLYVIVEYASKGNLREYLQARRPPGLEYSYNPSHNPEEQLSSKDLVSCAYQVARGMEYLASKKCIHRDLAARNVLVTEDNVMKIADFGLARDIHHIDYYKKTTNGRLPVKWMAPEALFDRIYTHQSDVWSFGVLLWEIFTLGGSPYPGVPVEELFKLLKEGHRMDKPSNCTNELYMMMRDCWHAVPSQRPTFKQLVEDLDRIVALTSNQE
T6 sequence (P10721 with tags, fused parts or gaps): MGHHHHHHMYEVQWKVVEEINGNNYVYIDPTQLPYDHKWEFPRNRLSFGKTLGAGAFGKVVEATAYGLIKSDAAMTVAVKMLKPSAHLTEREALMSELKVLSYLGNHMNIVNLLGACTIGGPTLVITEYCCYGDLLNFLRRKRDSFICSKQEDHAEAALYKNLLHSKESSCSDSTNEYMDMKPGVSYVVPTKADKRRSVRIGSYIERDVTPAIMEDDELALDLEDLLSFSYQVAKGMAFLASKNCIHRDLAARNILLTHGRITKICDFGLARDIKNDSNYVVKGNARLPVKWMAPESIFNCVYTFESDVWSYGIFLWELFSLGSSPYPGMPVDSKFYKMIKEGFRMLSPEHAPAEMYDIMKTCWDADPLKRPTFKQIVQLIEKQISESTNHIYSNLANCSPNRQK
T4 sequence (P04049 whole entry): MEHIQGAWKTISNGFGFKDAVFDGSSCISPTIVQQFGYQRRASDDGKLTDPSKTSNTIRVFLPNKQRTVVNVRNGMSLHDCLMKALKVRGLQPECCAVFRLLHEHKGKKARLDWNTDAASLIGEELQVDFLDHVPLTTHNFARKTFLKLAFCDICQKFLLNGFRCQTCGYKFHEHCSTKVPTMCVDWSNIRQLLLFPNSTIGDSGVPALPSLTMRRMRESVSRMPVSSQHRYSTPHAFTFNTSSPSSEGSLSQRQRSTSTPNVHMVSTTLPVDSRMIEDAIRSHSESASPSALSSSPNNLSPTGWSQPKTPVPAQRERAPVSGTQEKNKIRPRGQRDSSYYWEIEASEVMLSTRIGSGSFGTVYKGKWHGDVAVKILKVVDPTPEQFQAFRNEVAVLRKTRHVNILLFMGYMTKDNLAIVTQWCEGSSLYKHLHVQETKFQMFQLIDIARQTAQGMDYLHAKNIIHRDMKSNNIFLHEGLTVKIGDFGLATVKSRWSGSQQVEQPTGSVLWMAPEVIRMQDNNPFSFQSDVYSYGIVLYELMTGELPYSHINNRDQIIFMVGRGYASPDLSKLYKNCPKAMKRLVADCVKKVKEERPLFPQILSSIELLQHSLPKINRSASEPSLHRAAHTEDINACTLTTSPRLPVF
T17 sequence (Q05397 411-686): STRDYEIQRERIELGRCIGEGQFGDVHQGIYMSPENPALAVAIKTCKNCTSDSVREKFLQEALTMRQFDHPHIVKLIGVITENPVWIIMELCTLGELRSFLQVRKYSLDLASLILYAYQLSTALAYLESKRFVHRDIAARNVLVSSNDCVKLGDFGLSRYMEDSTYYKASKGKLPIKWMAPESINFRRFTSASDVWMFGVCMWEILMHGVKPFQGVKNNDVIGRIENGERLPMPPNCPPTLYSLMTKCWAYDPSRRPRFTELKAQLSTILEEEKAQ

Compound	IC50 (Abl) [µM]	IC50 (B-Raf V600E) [µM]	IC50 (Jnk3) [µM]	IC50 (Kit) [µM]	IC50 (Ret) [µM]	IC50 (FGFR1) [µM]	further results
Cc1ccc(Nc2cnc3[nH]ccc3c2)cc1 [Compound P-1037]	–	–	–	–	–	–	IC50 (Met): ≤ 10 µM
CCOc1cccc(Cc2c[nH]c3ncc(-c4ccsc4)cc23)c1 [Compound P-0562]	≤ 10	–	≤ 10	≤ 10	–	≤ 10	IC50 (Kdr): ≤ 10 µM; IC50 (Pyk2): ≤ 10 µM; IC50 (Src): ≤ 10 µM
O=C(c1cc(O)ccc1F)c1c[nH]c2nccc(Cl)c12 [Compound P-0794]	≤ 10	≤ 10	–	≤ 10	≤ 10	–	IC50 (B-Raf): ≤ 10 µM; IC50 (c-Raf-1): ≤ 10 µM
Cc1ccc(S(=O)(=O)NCc2c[nH]c3ncc(-c4ccsc4)cc23)cc1 [Compound P-1127]	≤ 10	–	–	–	–	–	–
COc1cccc(Cc2c[nH]c3nccc(Br)c23)c1 [Compound P-0501]	≤ 10	–	–	≤ 10	≤ 10	≤ 10	IC50 (Fak): ≤ 10 µM; IC50 (Fms): ≤ 10 µM; IC50 (Pyk2): ≤ 10 µM; IC50 (Src): ≤ 10 µM
c1csc(Sc2c[nH]c3ncccc23)c1 [Compound P-0529]	≤ 10	–	–	–	–	–	IC50 (Pyk2): ≤ 10 µM
Cc1cccc(-c2c(CSCc3ccccc3)[nH]c3ncccc23)c1 [Compound P-1132]	–	–	–	–	–	–	IC50 (Met): ≤ 10 µM
COc1cc(Nc2cnc3[nH]ccc3c2)cc(OC)c1OC [Compound P-1092]	–	–	–	–	–	–	IC50 (Met): ≤ 10 µM
O=C(NCc1ccccn1)NCc1c[nH]c2ncccc12 [Compound P-0761]	–	–	–	–	≤ 10	–	IC50 (Met): ≤ 10 µM

The next lines start with results.

IC50 (Abl) [µM]	IC50 (B-Raf V600E) [µM]	IC50 (Jnk3) [µM]	IC50 (Kit) [µM]	IC50 (Ret) [µM]	IC50 (FGFR1) [µM]	Compound	further results
≤ 10	≤ 10	≤ 10	≤ 10	≤ 10	–	O=C(c1cc(O)ccc1F)c1c[nH]c2ncc(-c3ccsc3)cc12 [Compound P-0604]	IC50 (B-Raf): ≤ 10 µM; IC50 (c-Raf-1): ≤ 10 µM
≤ 10	≤ 10	≤ 10	–	≤ 10	–	COc1ccc(F)c(C(=O)c2c[nH]c3ncc(-c4cccc(/C=C/C(=O)O)c4)cc23)c1 [Compound P-0047]	IC50 (Btk): ≤ 10 µM; IC50 (Yes): ≤ 10 µM; IC50 (Zap70): ≤ 10 µM
≤ 10	≤ 10	–	≤ 10	≤ 10	≤ 10	Cc1ccccc1C(=O)c1c[nH]c2ncc(-c3cccnc3)cc12 [Compound P-0623]	IC50 (Jnk2): ≤ 10 µM; IC50 (Kdr): ≤ 10 µM; IC50 (Src): ≤ 10 µM
≤ 10	–	–	–	≤ 10	–	Cc1cc(C(=O)c2c[nH]c3ncc(-c4cccc(N)c4)cc23)n(C)n1 [Compound P-1115]	–
≤ 10	≤ 10	≤ 10	≤ 10	≤ 10	≤ 10	Cc1ccc(F)cc1C(=O)c1c[nH]c2ncc(-c3ccsc3)cc12 [Compound P-0671]	–
≤ 10	–	≤ 10	–	≤ 10	–	Cc1ccccc1C(=O)c1c[nH]c2ncc(-c3ccc(C(N)=O)cc3)cc12 [Compound P-1011]	–
≤ 10	≤ 10	–	≤ 10	≤ 10	≤ 10	Cc1ccc(F)cc1C(=O)c1c[nH]c2ncc(-c3cccnc3)cc12 [Compound P-0693]	IC50 (B-Raf): ≤ 10 µM
≤ 10	–	–	≤ 10	–	–	Cc1cc(C(=O)c2c[nH]c3ncc(-c4cccnc4)cc23)n(C)n1 [Compound P-0800]	IC50 (MAP4K4): ≤ 10 µM
≤ 10	≤ 10	≤ 10	≤ 10	≤ 10	≤ 10	Cc1ccccc1C(=O)c1c[nH]c2ncc(-c3ccsc3)cc12 [Compound P-0244]	IC50 (Flt1): ≤ 10 µM; IC50 (Fms): ≤ 10 µM; IC50 (Jnk1): ≤ 10 µM; IC50 (Src): ≤ 10 µM
